In article PMC9221018, “Sulfonamide-Derived Dithiocarbamate Gold(I) Complexes Induce the Apoptosis of Colon Cancer Cells by the Activation of Caspase 3 and Redox Imbalance” (Biomedicines, 2022):

Tests used:
Caco-2 cells [1] = experiment: Apoptosis measurement, annexin V-FITC/PI flow cytometry; assay type: cell-based, human; conditions: complex 1 1.14 µM 48 h, complex 8 7.22 µM 72 h
Experimental: Caco-2 cells were seeded in 75 cm^2 flasks at a density of 1 × 10^4 cells/cm^2, then exposed to the drug panel for 48 or 72 h depending on the compound tested, and them stained with annexin V-FITC and sodium iodide propidio according to the manufacturer’s instructions. The cells were then transferred to flow cytometry tubes and washed twice with phosphate-buffered saline (PBS); they were then resuspended in 100 µL annexing V binding buffer (100 mM Hepes/NaOH pH 7.4, […], 2.5 mM CaCl2). In total, 5 µL annexin V-FITC and 5 µL propidium iodide (PI) were added to the tube. After 15 min of incubation at room temperature protected from light, 400 µL annexin binding buffer was added to each sample, and the signal intensity was analyzed within 1 h with Beckman Coulter Gallios (Brea, CA, USA). The data were analyzed with BD FACSDivaTM [59].

p53 = experiment: Determination of p53 protein by flow cytometry; assay type: cell-based, human; conditions: Caco-2; complex 1 1.14 µM 48 h, complex 8 7.22 µM 72 h
Experimental: (§1) Caco-2 cells were seeded in a 75 cm^2 flask at a density of 1 × 10^4 cells/cm^2; 24 h later, they were exposed to the drug panel for 48 or 72 h. Then, the cells were collected and processed as previously described. Finally, 50 µL of every sample was incubated with 5 µL anti-active caspase-3 (BD Pharmigen, San Diego, CA, USA, Clone C92-605) and 5 µL p53 antibody (Miltenyi, Auburn, CA, USA, Clone REA609). The fluorescence was measured by flow cytometry using a Beckman Coulter Gallios (Brea, CA, USA) equipped with a blue solid diode laser (488 nm) and a red solid diode laser (635 nm). For the caspase-3 determination, the excitation wavelength was set at 488 nm and the emission was set at 525 nm; for the p53 analysis, the excitation was set at 635 nm and the emission was set at 660 nm.

[2] = n-octanol-water distribution coefficient, shake-flask method; assay type: physicochemical; conditions: n-octanol/buffered saline pH 7.4, shake-flask
Experimental: The n-octanol−water coefficients of the complexes were determined using a shake-flask method, as reported previously. Briefly, 100 mL buffered-saline (0.15 M NaCl, 10 mM phosphate [PO4^3−] buffer, pH 7.4) and 100 mL n-octanol were shaken for 72 h. The addition of 1 mg of the complexes followed by the centrifugation and separation of both phases gave two solutions, which were analysed by UV absorbance spectroscopy to determine their concentration in each phase. The corresponding value of log P was defined as log{[compound(organic)]/[compound(aqueous)]}.

Caco-2 cells [3] = experiment: Propidium iodide DNA staining and cell cycle analysis; assay type: cell-based, human; conditions: complex 1 1.14 µM 48 h, complex 8 7.22 µM 72 h
Experimental: Once the cells were seeded in 25 cm^2 flasks at a density of 1 × 10^4 cells/cm^2, they were exposed, after 24 post-sendings, to the drug panel for 48 or 72 h. The cells were fixed according to the previously described methods before being stained with 50 μg/mL PI solution. The signal intensity was analysed with a Beckman Coulter Gallios (Brea, CA, USA) equipped with a blue solid diode laser (488 nm) and a red solid diode laser (635 nm), collecting fluorescence with a 620 nm-long pass filter.

caspase-3 = experiment: Determination of active caspase 3 by flow cytometry; assay type: cell-based, human; conditions: Caco-2; complex 1 1.14 µM 48 h, complex 8 7.22 µM 72 h
Experimental: as §1

Caco-2 cells [4] = experiment: Intracellular ROS levels, dichlorofluorescein assay; assay type: cell-based, human; conditions: Caco-2, different concentrations, 1, 3 and 24 h
Experimental: After the Caco-2 cells were seeded in a 96-well plate at a density of 4 × 10^3 cells/well, the intracellular ROS levels were determined with a dichlorofluorescein assay, following the protocol used by Quero et al.. The cells were exposed to the drug panel for 1, 3 and 24 h, and then incubated with 20 µM 2′-7′-dichlorofluorescein diacetate (DCFH-DA) (Merck KGaA, Darmstadt, Germany) in DMEM. The generation of oxidized derivative DCF was monitored by measuring the increase of the fluorescence for 1 h, at an emission wavelength of 520 nm and an excitation of 485 nm, using a FLUOstar Omega (BMG Labtech, Ortenberg, Germany) multiplate reader. The results were expressed as percentage of the fluorescence with respect to the control, considering the fluorescence intensity as a reflection of the intracellular ROS levels.

Row | Molecule | induction of apoptosis (annexin V/PI) (Caco-2 cells [1]) | cells with active p53 (p53) | Log P7.4 [2] | cell cycle distribution (Caco-2 cells [3]) | percentage of cells with active caspase-3 (caspase-3) | intracellular ROS levels (Caco-2 cells [4])
1 | O=S(=O)(NC(=S)[S][Au][PH](c1ccccc1)(c1ccccc1)c1ccccc1)c1ccccc1 [Complex 1, [Au(S2CNHSO2C6H5)(PPh3)]] | capable of inducing apoptosis | significant increase in cells with active p53 | 0.75 | significantly increased the number of cells arrested in the G1 phase | increased the percentage of cells with active caspase-3 | time- and concentration-dependent pro-oxidant effect
2 | [Au(S2CNHSO2-p-Me-C6H4)(IMePropargyl)] [Complex 8] | capable of inducing apoptosis | significant increase in cells with active p53 | −0.13 | significantly increased the number of cells arrested in the G1 phase | increased the percentage of cells with active caspase-3 | time- and concentration-dependent pro-oxidant effect
